Results as given in paper PMC4849654, “A High-Throughput Cell-Based Screen Identified a 2-[(E)-2-Phenylvinyl]-8-Quinolinol Core Structure That Activates p53” (PLoS ONE, 2016).

What was measured:
[1] = test system: proteasome chymotrypsin-like activity; assay: Proteasome-Glo chymotrypsin-like activity; format: cell-based; conditions: C33a cells, 2 hrs, 10 μM or 30 μM
p53 [2] = target: T1, p53 (Homo sapiens, UniProt P04637, R273C); assay: p53 nuclear localization by immunofluorescence; format: cell-based; conditions: C33a cells, 30 μM, 8 hrs
T1 construct: endogenous in cells; host or cells: C33a
Description: C33a cells were plated into chamber slides and treated with 30 μM of compounds 3 or, 4 for 4, or 8 hours. As a control, 30 μM cisplatin was used. The cells were fixed with 2.5% formaldehyde for 30 minutes, followed by permeabilization with 0.01% Triton X100 for 30 minutes. Cells were blocked with 5% goat serum for 30 minutes and stained overnight with anti-p53 (Santa Cruz, antibody FL-303) or anti-phospho-H2A.X (cell signaling) in 1% FCS in PBS at 4°. The following day, the cells were washed with PBS and incubated for 45 minutes with anti-rabbit-FITC and DAPI in 1% FCS in PBS. The cells were washed and mounted with ProLong Gold.

MCF7 cells = assay: Cell viability, MCF7; format: cell-based; conditions: MCF7, wild type p53
p73 = target: T2, p73 (Homo sapiens, UniProt O15350); assay: p73 nuclear accumulation by Western analysis; format: cell-based; conditions: mutHCT116 cells, 6h
T2 construct: endogenous in cells; host or cells: HCT116 (p53-null mutHCT116 and wtHCT116)
T2 sequence (O15350 1-636): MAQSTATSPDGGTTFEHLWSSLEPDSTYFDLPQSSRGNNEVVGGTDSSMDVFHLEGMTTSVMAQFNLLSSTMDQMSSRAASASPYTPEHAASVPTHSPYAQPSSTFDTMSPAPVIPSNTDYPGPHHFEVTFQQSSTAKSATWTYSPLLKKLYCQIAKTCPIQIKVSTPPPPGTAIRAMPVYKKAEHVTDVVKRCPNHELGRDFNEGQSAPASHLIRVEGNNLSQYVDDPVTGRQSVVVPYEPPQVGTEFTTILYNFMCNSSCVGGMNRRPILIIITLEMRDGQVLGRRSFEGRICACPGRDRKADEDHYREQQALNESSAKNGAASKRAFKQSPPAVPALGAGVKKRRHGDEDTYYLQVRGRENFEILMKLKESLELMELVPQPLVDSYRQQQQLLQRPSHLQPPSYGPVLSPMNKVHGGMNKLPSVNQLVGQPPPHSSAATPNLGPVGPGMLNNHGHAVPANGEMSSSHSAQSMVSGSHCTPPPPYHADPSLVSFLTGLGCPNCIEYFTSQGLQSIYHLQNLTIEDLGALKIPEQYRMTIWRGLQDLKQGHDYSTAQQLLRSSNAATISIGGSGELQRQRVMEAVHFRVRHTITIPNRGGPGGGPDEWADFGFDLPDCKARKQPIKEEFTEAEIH

p53 [3] = target: T1, p53; assay: Nuclear/cytoplasmic fractionation and Western analysis of p53; format: cell-based; conditions: C33a cells, 6 hrs, Western
Description: For nuclear/cytoplasmic fractionation, 1 × 10^7 C33a cells were treated with 30 μM compound for 6 hrs. The cells were washed with PBS and lysed in 1000 μL of cytoplasmic extraction buffer (10 mM KCl, 10 mM HEPES, pH 7.9, 0.1 mM EDTA, 1 mM dithiothreitol) and incubated on ice for 20 min. 50 μL of 10% NP-40 was added to each lysate, vortexed and then centrifuged at 12,000 × g for 10 min. The cytosolic fraction was collected and the pellet containing the nuclei suspended in 50 μL of nuclear extraction buffer (0.4 M NaCl, 20 mM HEPES, pH 7.9, 1 mM EDTA). The nuclear fraction was incubated for 30 min on ice. The samples were spun at 14,000 × g for 10 min and the supernatants were collected. To concentrate the cytoplasmic fraction, 500 μL methanol, and 200 μL chloroform were added and the samples were vortexed, centrifuged for 10 min at 14,000 × g, and the upper and lower layer were discarded. The solid interphase was collected and suspended in 50 μL of lysis buffer. Equal cell equivalents were loaded on a gel and electrophoresed. For whole cell lysates, C33a cells were lysed with a modified RIPA buffer and subjected to SDS-PAGE electrophoresis. The gels were transferred to nitrocellulose and blots probed with antibodies for p53 (Santa Cruz, antibody FL-303), lamin A/C, and calnexin (Santa Cruz Biotechnology).

C33a cells [4] = assay: Cell viability after p53 siRNA knockdown; format: cell-based; conditions: p53 siRNA vs scrambled, 10 μM, 48 hrs
Description: C33a cells were transfected with 100 pmol siRNA for p53 (Dharmacon, L-003329-00-0005) or AllStar control (Qiagen) using lipofectamine2000 according to manufacturer’s instructions. The cells were incubated for 24 hrs and then split and incubated with 10 μM compounds. Cell viability was measured after 48 hours by Cell Titer Glo. Efficiency of knockdown was determined by quantitative RT-PCR using SYBR green.

C33a cells [5] = assay: Annexin V/PI staining by flow cytometry; format: cell-based
Description: For the viability assays, 20,000 C33a, HeLa, or siHA cells were plated in white 96 well flat bottom plates. The cells were treated with compounds at concentrations from 0.5 to 30 μM for 48 hrs. After incubation, Cell Titer Glo (Promega) was added to the cells and luminescence read in a Tecan II plate reader. For annexin V and PI staining, 500,000 C33a cells were treated with inhibitor for 24 hrs. The cells were stained with Annexin V-FITC and PI according to eBioscience manufacturer’s instructions and analyzed by flow cytometry.

p53 [6] = target: T3, p53 (Homo sapiens, UniProt P04637); assay: Surface plasmon resonance (Biacore) binding to p53; conditions: SPR, recombinant p53 amine linked to Biacore chip, compound 1 to 25 μM
T3 construct: purchased R&D systems
Text: Free reactive amines were then blocked with ethanolamine.

COc1ccc(/C=C/c2ccc3cccc(O)c3n2)cc1OC [compound 4]
chymotrypsin-like proteasome activity [1]: did not significantly reduce | p53 nuclear accumulation, % of cell nuclei (p53 [2]): 79.5±12.7 % of cell nuclei | cell viability (Fig 5D) (MCF7 cells): decreased viability | p73 nuclear accumulation (p73): did not increase p73 nuclear accumulation | nuclear accumulation of p53 in nuclear fraction compared to vehicle (p53 [3]): higher levels of nuclear accumulation of p53 | effect of p53 gene knockdown on C33a sensitivity to compound (C33a cells [4]): significantly reversed | apoptotic and necrotic cells (C33a cells [5]): increased both the number of apoptotic and necrotic cells | Kd (p53 [6]): 200 ± 52 nM
